Laboratory results from US20220213092A1, “BICYCLIC PYRAZOLE BRUTON'S TYROSINE KINASE INHIBITORS” (AbbVie Inc., priority 2020, published 2022).

Tests used:
[1] = molecular target: T1, Phosphorylation of Y223 of BTK (Homo sapiens, UniProt Q06187); assay: Whole blood compound screening, phosphorylation of Y223 site of BTK (MSD assay); format: cell-based; conditions: healthy human whole blood, 2 hours at 37° C., 3 separate donors; read-out: WB BTK-pY223 EC50
T1 construct: host or cells: healthy human whole blood, 3 donors
T1 sequence (Q06187 whole entry): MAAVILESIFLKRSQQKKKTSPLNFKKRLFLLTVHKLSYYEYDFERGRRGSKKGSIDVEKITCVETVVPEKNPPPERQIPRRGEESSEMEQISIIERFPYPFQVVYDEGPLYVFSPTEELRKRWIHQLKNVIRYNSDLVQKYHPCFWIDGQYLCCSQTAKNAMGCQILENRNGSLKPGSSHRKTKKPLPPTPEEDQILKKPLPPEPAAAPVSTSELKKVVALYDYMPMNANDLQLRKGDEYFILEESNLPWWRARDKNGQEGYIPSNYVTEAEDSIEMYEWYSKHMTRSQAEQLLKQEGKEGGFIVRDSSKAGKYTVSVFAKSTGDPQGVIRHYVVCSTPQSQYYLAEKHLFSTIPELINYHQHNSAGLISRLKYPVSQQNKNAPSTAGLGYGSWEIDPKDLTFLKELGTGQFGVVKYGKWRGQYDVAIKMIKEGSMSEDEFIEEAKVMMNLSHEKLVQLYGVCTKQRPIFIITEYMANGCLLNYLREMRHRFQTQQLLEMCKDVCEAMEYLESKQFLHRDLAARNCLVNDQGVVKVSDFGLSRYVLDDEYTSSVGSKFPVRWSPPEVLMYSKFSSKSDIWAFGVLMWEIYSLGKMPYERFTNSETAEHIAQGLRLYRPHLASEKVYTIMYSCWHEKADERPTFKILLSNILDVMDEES
Description: Healthy human whole blood (WB) was collected from […]™ Technologies or […]® in sodium heparinized tubes. Whole blood was stored at ambient temperature to avoid coagulation. Each compound was tested in 3 separate donors. Compound stock solutions (10 mM) were used to generate dose titration (8 concentrations, starting concentration 10 μM, 1:4 dilution) in appropriate volume of dimethyl sulfoxide (0.2%). Whole blood was incubated with compounds in 96-well plates for 2 hours in tissue culture incubators at 37° C. under a 5% CO2 atmosphere. The whole blood was lysed in equal volume of lysis buffer (Cell Signaling Technology®, Danvers, Mass.) containing complete protease inhibitor tablet, PhosSTOP™ tablet, sodium orthovanadate and sodium fluoride and phenylmethanesulfonyl fluoride solution. The lysed whole blood was then frozen at −80° C. for overnight.
Phosphorylation of Y223 of BTK was measured using an MSD assay (Meso Scale Diagnostics, LLC, Rockville, Md.). The thawed lysed whole blood was incubated with the capturing antibody rabbit anti-human BTK (D3H5) (Cell Signaling Technology, Danvers, Mass.) at 4° C. overnight. After washing out the unbound samples, the detection antibody biotinylated rabbit anti-pY223-BTK(D9T6H) (Cell Signaling Technology®, Danvers, Mass.) was added to the plates. After washing out the unbound antibodies, SULFO-TAG Streptavidin (Meso Scale Diagnostics, LLC, Rockville, Md.) was used for detection on Meso Sector S600 (Meso Scale Diagnostics, LLC, Rockville, Md.).
The EC50 values were determined using software from Dotmatics. The activity of exemplary compounds is illustrated below.

BTK = molecular target: T2, BTK (Homo sapiens, UniProt Q06187); assay: BTK kinase electrophoretic mobility shift assay (MSA); format: biochemical; conditions: 50 μM ATP, 0.5 nM BTK enzyme (Nanosyn-293HEK, WT), 3 hours at 25° C.; all examples except 50, 51, 62 and 63; read-out: BTK IC50
T2 construct: purchased Nanosyn, Santa Clara, Calif; host or cells: 293HEK
T2 sequence (Q06187 whole entry): as above

Row | Compound | EC50 [1] [nM] | IC50 (BTK) [nM]
1 | C=CC(=O)N1CCC(N2CCNc3c2nn(-c2ccc(Oc4ccccc4)cc2)c3C(N)=O)CC1 [Example 16, 2-(4-phenoxyphenyl)-7-[1-(prop-2-enoyl)piperidin-4-yl]-4,5,6,7-tetrahydro-2H-pyrazolo[3,4-b]pyrazine-3-carboxamide] | 18.3 | 0.592
2 | C=CC(=O)N1CCN([C@@H]2CCNc3c2nn(-c2ccc(Oc4ccc(OC(F)(F)F)cc4)cc2)c3C(N)=O)CC1 [Example 85, (7R)-7-[4-(prop-2-enoyl)piperazin-1-yl]-2-{4-[4-(trifluoromethoxy)phenoxy]phenyl}-4,5,6,7-tetrahydro-2H-pyrazolo[4,3-b]pyridine-3-carboxamide] | 2030 | 107
3 | C=CC(=O)N1CCN([C@@H]2CCNc3c2nn(-c2ccc(Oc4ccc(O)cc4)cc2)c3C(N)=O)CC1 [Example 44, (7R)-2-[4-(4-hydroxyphenoxy)phenyl]-7-[4-(prop-2-enoyl)piperazin-1-yl]-4,5,6,7-tetrahydro-2H-pyrazolo[4,3-b]pyridine-3-carboxamide] | 158 | 15.4
4 | C=CC(=O)N1CCN([C@@H]2CCNc3c2nn(-c2ccc(Oc4cccc(C#N)c4)cc2)c3C(N)=O)CC1 [Example 64, (7R)-2-[4-(3-cyanophenoxy)phenyl]-7-[4-(prop-2-enoyl)piperazin-1-yl]-4,5,6,7-tetrahydro-2H-pyrazolo[4,3-b]pyridine-3-carboxamide] | 75 | 5.58
5 | C=CC(=O)N1CCN(C2CCNc3c2nn(-c2ccc(Oc4ccccc4)cc2)c3C(N)=O)CC12CC2 (stereo not shown) [Example 53, 2-(4-phenoxyphenyl)-7-[4-(prop-2-enoyl)-4,7-diazaspiro[2.5]octan-7-yl]-4,5,6,7-tetrahydro-2H-pyrazolo[4,3-b]pyridine-3-carboxamide] | 71.8 | 1.2
6 | C=CC(=O)N1CCN([C@@H]2CCNc3c2nn(-c2ccc(Oc4cccc(C)c4)cc2)c3C(N)=O)CC1 [Example 88, (7R)-2-[4-(3-methylphenoxy)phenyl]-7-[4-(prop-2-enoyl)piperazin-1-yl]-4,5,6,7-tetrahydro-2H-pyrazolo[4,3-b]pyridine-3-carboxamide] | 225 | 0.797
7 | C=CC(=O)N1CCN([C@@H]2CCNc3c2nn(-c2ccc(Oc4ccccc4C(F)(F)F)cc2)c3C(N)=O)CC1 [Example 60, (7R)-7-[4-(prop-2-enoyl)piperazin-1-yl]-2-{4-[2-(trifluoromethyl)phenoxy]phenyl}-4,5,6,7-tetrahydro-2H-pyrazolo[4,3-b]pyridine-3-carboxamide] | 83.4 | 1.42
8 | C=CC(=O)N1CCC([C@H]2CCNc3c2nn(-c2ccc(Oc4ccccc4)cc2)c3C(N)=O)CC1 [Example 4, (7R)-2-(4-phenoxyphenyl)-7-[1-(prop-2-enoyl)piperidin-4-yl]-4,5,6,7-tetrahydro-2H-pyrazolo[4,3-b]pyridine-3-carboxamide] | 35.7 | 0.331
9 | C=CC(=O)N1CC(N2CCNc3c2nn(-c2ccc(Oc4ccccc4F)cc2)c3C(N)=O)C1 [Example 75, 2-[4-(2-fluorophenoxy)phenyl]-7-[1-(prop-2-enoyl)azetidin-3-yl]-4,5,6,7-tetrahydro-2H-pyrazolo[3,4-b]pyrazine-3-carboxamide] | 61 | 1.14
10 | C=CC(=O)N1CCN([C@@H]2CCNc3c2nn(-c2ccc(Oc4ccccc4C4CC4)cc2)c3C(N)=O)CC1 [Example 68, (7R)-2-[4-(2-cyclopropylphenoxy)phenyl]-7-[4-(prop-2-enoyl)piperazin-1-yl]-4,5,6,7-tetrahydro-2H-pyrazolo[4,3-b]pyridine-3-carboxamide] | 96.2 | 3.18
11 | C=CC(=O)N1CCC([C@H]2CCNc3c2nn(-c2ccc(Oc4ccc(F)cc4F)cc2)c3C(N)=O)CC1 [Example 30, (7R)-2-[4-(2,4-difluorophenoxy)phenyl]-7-[1-(prop-2-enoyl)piperidin-4-yl]-4,5,6,7-tetrahydro-2H-pyrazolo[4,3-b]pyridine-3-carboxamide] | 45.3 | 1.05
12 | C=CC(=O)N1CCN([C@@H]2CCNc3c2nn(-c2ccc(Oc4cccc(OC(F)(F)F)c4)cc2)c3C(N)=O)CC1 [Example 89, (7R)-7-[4-(prop-2-enoyl)piperazin-1-yl]-2-{4-[3-(trifluoromethoxy)phenoxy]phenyl}-4,5,6,7-tetrahydro-2H-pyrazolo[4,3-b]pyridine-3-carboxamide] | 525 | 1.75
13 | C=CC(=O)N1CCC(O)(C2CCNc3c2nn(-c2ccc(Oc4ccccc4)cc2)c3C(N)=O)CC1 (stereo not shown) [Example 84, 7-[4-hydroxy-1-(prop-2-enoyl)piperidin-4-yl]-2-(4-phenoxyphenyl)-4,5,6,7-tetrahydro-2H-pyrazolo[4,3-b]pyridine-3-carboxamide] | 45.6 | 1.4
14 | C=CC(=O)N1CCC(C2CCNc3c2nn(-c2ccc(Oc4cccc(C)c4)cc2)c3C(N)=O)CC1 (stereo not shown) [Example 24, 2-[4-(3-methylphenoxy)phenyl]-7-[1-(prop-2-enoyl)piperidin-4-yl]-4,5,6,7-tetrahydro-2H-pyrazolo[4,3-b]pyridine-3-carboxamide] | 92.9 | 0.735
15 | C=CC(=O)N1CCN([C@@H]2CCNc3c2nn(-c2ccc(Oc4ccc(F)cc4F)cc2)c3C(N)=O)CC1 [Example 70, (7R)-2-[4-(2,4-difluorophenoxy)phenyl]-7-[4-(prop-2-enoyl)piperazin-1-yl]-4,5,6,7-tetrahydro-2H-pyrazolo[4,3-b]pyridine-3-carboxamide] | 239 | 7.09
16 | C=CC(=O)N1CCN([C@@H]2CCNc3c2nn(-c2ccc(Oc4ccccc4C)cc2)c3C(N)=O)CC1 [Example 86, (7R)-2-[4-(2-methylphenoxy)phenyl]-7-[4-(prop-2-enoyl)piperazin-1-yl]-4,5,6,7-tetrahydro-2H-pyrazolo[4,3-b]pyridine-3-carboxamide] | 315 | 0.706
17 | C=CC(=O)N1CCN(C2CCNc3c2nn(-c2ccc(Oc4cccc(F)c4)cc2)c3C(N)=O)CC1 (stereo not shown) [Example 57, 2-[4-(3-fluorophenoxy)phenyl]-7-[4-(prop-2-enoyl)piperazin-1-yl]-4,5,6,7-tetrahydro-2H-pyrazolo[4,3-b]pyridine-3-carboxamide] | 85.9 | 1.76
18 | C=CC(=O)N1CC(N2CCNc3c2nn(-c2ccc(Oc4ccccc4)cc2)c3C(N)=O)C1 [Example 22, 2-(4-phenoxyphenyl)-7-[1-(prop-2-enoyl)azetidin-3-yl]-4,5,6,7-tetrahydro-2H-pyrazolo[3,4-b]pyrazine-3-carboxamide] | 38.2 | 1.11
19 | C=CC(=O)N1CCN(C2CCNc3c2nn(-c2ccc(Oc4ccccc4)cc2)c3C(N)=O)CC1 (stereo not shown) [Example 3, 2-(4-phenoxyphenyl)-7-[4-(prop-2-enoyl)piperazin-1-yl]-4,5,6,7-tetrahydro-2H-pyrazolo[4,3-b]pyridine-3-carboxamide] | 40.7 | 0.993
20 | C=CC(=O)N1CCN(C2CCNc3c2nn(-c2ccc(Oc4ccccc4)cc2)c3C(N)=O)C[C@@H]1C (stereo partly drawn) [Example 43, 7-[(3S)-3-methyl-4-(prop-2-enoyl)piperazin-1-yl]-2-(4-phenoxyphenyl)-4,5,6,7-tetrahydro-2H-pyrazolo[4,3-b]pyridine-3-carboxamide] | 62.5 | 1.17
21 | C=CC(=O)N1CC(N2CCNc3c2nn(-c2ccc(Oc4cccc(F)c4F)cc2)c3C(N)=O)C1 [Example 76, 2-[4-(2,3-difluorophenoxy)phenyl]-7-[1-(prop-2-enoyl)azetidin-3-yl]-4,5,6,7-tetrahydro-2H-pyrazolo[3,4-b]pyrazine-3-carboxamide] | 85.5 | 0.968
22 | C=CC(=O)N1CCN([C@@H]2CCNc3c2nn(-c2ccc(Oc4cccc(C(F)(F)F)c4)cc2)c3C(N)=O)CC1 [Example 65, (7R)-7-[4-(prop-2-enoyl)piperazin-1-yl]-2-{4-[3-(trifluoromethyl)phenoxy]phenyl}-4,5,6,7-tetrahydro-2H-pyrazolo[4,3-b]pyridine-3-carboxamide] | 34.2 | 0.953
23 | C=CC(=O)N1CCN(C2CCNc3c2nn(-c2ccc(Oc4ccccc4C(F)(F)F)cc2)c3C(N)=O)CC1 (stereo not shown) [Example 54, 7-[4-(prop-2-enoyl)piperazin-1-yl]-2-{4-[2-(trifluoromethyl)phenoxy]phenyl}-4,5,6,7-tetrahydro-2H-pyrazolo[4,3-b]pyridine-3-carboxamide] | 76.7 | 1.19
